The supplement of paper PMC10307832

Tests used:
Assay in all cases: relative viability (nuclei count vs DMSO), 5 days (fraction); higher = more cells survive
Metformin + Luminespib = compound: CN(C)C(=N)NC(=N)N [Metformin] + CCNC(=O)c1noc(-c2cc(C(C)C)c(O)cc2O)c1-c1ccc(CN2CCOCC2)cc1 [Luminespib] (partner 0.01 µM)
Summary of the method: (§1)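 Values are medians from duplicate plates. Each reflects relative viability, defined as the nuclei count of treated wells over that of vehicle wells. Lung cancer cell lines in 1536-well plates were pin-tool dosed one day after seeding with one drug alone or with a fixed anchor-drug dose plus five library-drug doses (not always all listed) in √10 steps, then fixed, stained and imaged at 4× after 5 days.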

Metformin + Olaparib = compound: CN(C)C(=N)NC(=N)N [Metformin] + O=C(c1cc(Cc2n[nH]c(=O)c3ccccc23)ccc1F)N1CCN(C(=O)C2CC2)CC1 [Olaparib] (partner 8 µM)
Summary of the method: as §1

Apatinib + Pictilisib = compound: N#CC1(c2ccc(NC(=O)c3cccnc3NCc3ccncc3)cc2)CCCC1 [Apatinib] + CS(=O)(=O)N1CCN(Cc2cc3nc(-c4cccc5[nH]ncc45)nc(N4CCOCC4)c3s2)CC1 [Pictilisib] (partner 1 µM)
Summary of the method: as §1

Apatinib + AZD7762 = compound: N#CC1(c2ccc(NC(=O)c3cccnc3NCc3ccncc3)cc2)CCCC1 [Apatinib] + NC(=O)Nc1cc(-c2cccc(F)c2)sc1C(=O)N[C@H]1CCCNC1 [AZD7762] (partner 0.2 µM)
Summary of the method: as §1

| Cell Line | relative viability (Metformin + Luminespib; first compound 10 µM) | relative viability (Metformin + Luminespib; first compound 31.62 µM) | relative viability (Metformin + Luminespib; first compound 100 µM) | relative viability (Metformin + Luminespib; first compound 316.23 µM) | relative viability (Metformin + Luminespib; first compound 1000 µM) | relative viability (Metformin + Olaparib; first compound 10 µM) | relative viability (Metformin + Olaparib; first compound 31.62 µM) | relative viability (Metformin + Olaparib; first compound 100 µM) | relative viability (Metformin + Olaparib; first compound 316.23 µM) | relative viability (Metformin + Olaparib; first compound 1000 µM) | relative viability (Apatinib + Pictilisib; first compound 0.08 µM) | relative viability (Apatinib + Pictilisib; first compound 0.253 µM) | relative viability (Apatinib + Pictilisib; first compound 0.8 µM) | relative viability (Apatinib + Pictilisib; first compound 2.53 µM) | relative viability (Apatinib + Pictilisib; first compound 8 µM) | relative viability (Apatinib + AZD7762; first compound 0.08 µM) | relative viability (Apatinib + AZD7762; first compound 0.253 µM) | relative viability (Apatinib + AZD7762; first compound 0.8 µM) | relative viability (Apatinib + AZD7762; first compound 2.53 µM) | relative viability (Apatinib + AZD7762; first compound 8 µM) |
| --- | --- | --- | --- | --- | --- | --- | --- | --- | --- | --- | --- | --- | --- | --- | --- | --- | --- | --- | --- | --- |
| NCI-H1651 | 1.19 | 1.3 | 1.06 | 0.828 | 0.989 | 0.151 | 0.159 | 0.144 | 0.16 | 0.146 | 0.665 | 0.565 | 0.494 | 0.614 | 0.476 | 0.325 | 0.514 | 0.44 | 0.322 | 0.324 |
| NCI-H1355 | 0.752 | 0.704 | 0.768 | 0.701 | 0.752 | 0.696 | 0.715 | 0.713 | 0.679 | 0.757 | 0.499 | 0.42 | 0.428 | 0.382 | 0.364 | 0.699 | 0.812 | 0.593 | 0.447 | 0.457 |
| HOP-62 | 0.77 | 0.878 | 0.849 | 0.85 | 0.796 | 0.189 | 0.2 | 0.189 | 0.251 | 0.221 | 0.85 | – | 0.816 | 0.758 | 0.466 | 0.676 | 0.536 | 0.453 | 0.361 | 0.348 |
| BEN | 0.461 | 0.475 | 0.833 | 0.361 | 0.705 | 1.11 | 1.18 | 1.23 | 1.1 | 0.708 | 0.557 | 0.526 | 0.55 | 0.464 | 0.468 | 0.529 | 0.67 | 0.694 | 0.449 | 0.621 |
| NCI-H1793 | 0.22 | – | 0.147 | 0.16 | 0.235 | 0.702 | 1.1 | 0.813 | 0.781 | 0.901 | 0.277 | 0.23 | 0.391 | 0.256 | 0.342 | 0.669 | 0.41 | 0.257 | 0.209 | 0.116 |
| NCI-H838 | 0.258 | 0.289 | 0.291 | 0.237 | 0.251 | 0.686 | 0.691 | 0.639 | 0.596 | 0.696 | 0.533 | 0.462 | 0.41 | 0.469 | 0.451 | 0.979 | 0.957 | 0.941 | 0.885 | 0.865 |
| HCC-15 | – | 0.235 | 0.348 | 0.35 | 0.321 | 0.532 | 0.615 | 0.47 | 0.571 | 0.585 | 0.77 | 0.786 | 0.693 | 0.706 | 0.71 | 1.13 | 1.23 | 1.12 | 1.15 | 1.05 |
| NCI-H1666 | 1.06 | 1.11 | 1.16 | 1.06 | 1.16 | 0.78 | 0.76 | 0.834 | 0.726 | 0.764 | 0.408 | 0.413 | 0.456 | 0.418 | 0.54 | 0.828 | 0.871 | 0.776 | 0.769 | 0.746 |
| A-427 | 1.21 | 0.972 | 1.04 | 0.952 | 0.91 | 0.645 | 0.773 | 0.708 | 0.625 | 0.447 | 0.925 | 0.679 | 0.715 | 0.611 | 0.592 | 0.71 | 0.761 | 0.665 | 0.572 | 0.527 |
| LU99A | 0.223 | 0.233 | 0.238 | 0.269 | 0.252 | 0.203 | 0.251 | 0.202 | 0.232 | 0.241 | 0.333 | 0.327 | 0.332 | 0.302 | 0.295 | 0.413 | 0.448 | 0.269 | 0.224 | 0.229 |
| NCI-H727 | 0.566 | 0.496 | 0.387 | – | 0.477 | 0.641 | 0.599 | 0.582 | – | 0.577 | 0.328 | 0.306 | 0.358 | 0.364 | 0.367 | 0.487 | – | 0.548 | 0.456 | 0.49 |
| EPLC-272H | 0.398 | 0.335 | 0.27 | 0.25 | 0.413 | 0.748 | 0.769 | 1.01 | 0.922 | 0.877 | 0.351 | 0.331 | 0.357 | 0.324 | 0.349 | 0.334 | 0.24 | 0.206 | 0.174 | 0.17 |
